In PubChem BioAssay (NCI):
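48-hour exposure; five concentrations; linearly interpolated endpoints. GI50 is the concentration that inhibits growth by half. TGI denotes the concentration required for complete inhibition of growth.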

Experiments:
Assay in all cases: NCI anticancer screen, dose series, 48 h
[1] = test system: EKVX NSCLC
[2] = test system: HCT-15 colon
[3] = test system: HT29 colon
[4] = test system: M14 melanoma
[5] = test system: MOLT-4 leukemia
[6] = test system: SN12C renal
[7] = test system: SW-620 colon
[8] = test system: UACC-257 melanoma
[9] = test system: UACC-62 melanoma
[10] = test system: MDA-N

| SMILES | TGI [1] [µM] | TGI [2] [µM] | TGI [3] [µM] | TGI [4] [µM] | TGI [5] [µM] | TGI [6] [µM] | TGI [7] [µM] | TGI [8] [µM] | TGI [9] [µM] | TGI [10] [µM] | GI50 [1] [µM] | GI50 [2] [µM] | GI50 [3] [µM] | GI50 [4] [µM] | GI50 [5] [µM] | GI50 [6] [µM] | GI50 [7] [µM] | GI50 [8] [µM] | GI50 [9] [µM] |
| --- | --- | --- | --- | --- | --- | --- | --- | --- | --- | --- | --- | --- | --- | --- | --- | --- | --- | --- | --- |
| O=c1c2c(nc3n1CCC3)sc1c(O)c(Br)ccc12 | 68.6 | 45.7 | 33.1 | > 100 | 55.1 | 43.1 | 29.9 | 30.7 | 35.8 |  |  |  |  |  |  |  |  |  |  |
| c1ccc([P+](c2ccccc2)(c2ccccc2)c2ccc([P+](c3ccccc3)(c3ccccc3)c3ccccc3)cc2)cc1 |  | > 100 | > 100 | > 100 | > 100 | > 100 | > 100 | > 100 | > 100 | > 100 |  |  |  |  |  |  |  |  |  |
| Nc1c(N=Nc2ccc(-c3ccc(N=Nc4c(O)ccc5cc(S(=O)(=O)O)cc(S(=O)(=O)O)c45)cc3)cc2)c(S(=O)(=O)O)cc2cc(S(=O)(=O)O)c(N=Nc3ccccc3)c(O)c12 | > 100 | > 100 | > 100 |  | > 100 | > 100 | > 100 | > 100 | > 100 |  |  |  |  |  |  |  |  |  |  |
| Cc1cn([C@H]2[C@@H](CO)C[C@H]2O)c(=O)[nH]c1=O | > 100 | > 100 | > 100 |  | > 100 | > 100 | > 100 | > 100 |  | > 100 |  |  |  |  |  |  |  |  |  |
| O=S(=O)(O)C1CCC(O)C2[N-]CCCC21.O=S(=O)(O)C1CCC(O)C2[N-]CCCC21.[Zn+2] (centres undefined) | > 100 | > 100 | > 100 | > 100 | > 100 | > 100 | > 100 | > 100 | > 100 |  |  |  |  |  |  |  |  |  |  |
| N#CCCC1(CCC#N)CCCCCCC(CCC#N)(CCC#N)C(O)C1O (centres undefined) |  | > 100 | > 100 | > 100 |  | > 100 | > 100 | > 100 |  | > 100 |  |  |  |  |  |  |  |  |  |
| CC(=O)O[C@H]1C(=O)N(c2cc3c4ccccc4ccc3c3ccccc23)[C@@H]1c1ccccc1 | 74.2 | > 100 | 6.98 | 23.1 | > 100 | 26.7 |  | > 100 | 24 | > 100 |  |  |  |  |  |  |  |  |  |
| CCN(CC)CCCCC1CCN(CC(=O)N2c3ccccc3NC(=O)CC2C)CC1 (centres undefined) | > 100 | > 100 | > 100 | > 100 | > 100 | > 100 | > 100 | > 100 | > 100 |  |  |  |  |  |  |  |  |  |  |
| C=CCOC(=O)CCCCCCCCCCCCCCCOC(=O)C1=C(CCC[C@@H](C)O[Si](C)(C)C(C)(C)C)NC(=O)N2[C@H](CC3(CC/C=C\[C@H](CC)O[Si](C(C)C)(C(C)C)C(C)C)OCCO3)CC[C@H]12 | > 100 | > 100 |  | > 100 |  | > 100 |  | > 100 | > 100 | > 100 |  |  |  |  |  |  |  |  |  |
| CC(C)CCCC(C)[C@H]1CC[C@H]2N=C(Nc3ccccc3)CCC[C@]12C (some centres undefined) |  | 4.68 | 4.09 |  | 3.97 | 3.48 | > 100 | 4.85 | 3.46 | 10.9 |  |  |  |  |  |  |  |  |  |
| OC12CCCCCC1(N1CCOCC1)c1ccccc12 (centres undefined) |  | > 100 | > 100 | > 100 | > 100 | > 100 | > 100 | > 100 | > 100 |  |  |  |  |  |  |  |  |  |  |
| CCOc1ccc(-c2oc(/C=N/NS(=O)(=O)c3ccc(C)cc3)c([N+](=O)[O-])c2-c2ccc(OCC)cc2)cc1 | 80 | 18.4 | 20.7 | 27.7 | > 24.8 | 27.5 | 7.76 | 45 | 26 |  |  |  |  |  |  |  |  |  |  |
| O=C(OCc1ccccc1C1CSCSC1)c1cc(C(=O)OCc2ccccc2C2CSCSC2)c(C(=O)OCc2ccccc2C2CSCSC2)cc1C(=O)OCc1ccccc1C1CSCSC1 |  | > 100 | > 100 | > 100 | > 100 | > 100 | > 100 | > 100 | > 100 |  |  |  |  |  |  |  |  |  |  |
| Oc1[nH]c2ccccc2c1/C=c1/cc2c(c(-c3ccc(C(F)(F)F)cc3)n1)=Nc1ccccc1-2 | > 100 | 15.8 | 11.4 | 17.4 | 13.2 | > 100 | 13 | 42.3 | 21.9 |  | 10.5 | 3.59 | 3.16 | 3.89 | 3.32 | 27.9 | 2.4 | 13.6 | 6.32 |
| Cc1cc2occ(-c3ccc(Cl)cc3)c2c(=O)o1 | > 100 | > 100 | > 100 | > 100 | > 100 | > 100 | > 100 | > 100 | > 100 |  |  |  |  |  |  |  |  |  |  |
| [N-]=[N+]=C(C(=O)C(=[N+]=[N-])C(=O)c1ccccc1)C(=O)c1ccccc1 | > 100 | > 100 | > 100 | > 100 |  | > 100 | > 100 | > 100 | > 100 | > 100 |  |  |  |  |  |  |  |  |  |
